Data on two molecules can be found in PMC5913971, “A Novel Piperazine-Based Drug Lead for Cryptosporidiosis from the Medicines for Malaria Venture Open-Access Malaria Box” (Antimicrobial Agents and Chemotherapy, 2018).

Assay [1] concerns C. parvum Iowa isolate. In words: IFN-γ knockout mouse model of acute cryptosporidiosis. The assay is classed as in vivo, C57BL/6 IFN-γ−/− mice. The following applies: dose not given. How it is done:
All interferon gamma (IFN-γ) knockout mouse studies were performed in compliance with animal care guidelines and were approved by the Explora BioLabs (San Diego, CA) Institutional Animal Care and Use Committee. Four-week-old female C57BL/6 IFN-γ^−/− mice with normal flora were purchased from The Jackson Laboratory and were acclimated for 3 days prior to infection by oral gavage with 10^6 C. parvum Iowa isolate oocysts (Sterling Parasitology Laboratory, University of Arizona) suspended in sterile distilled water. At various times postinfection, mice were treated with the compound vehicle alone, clofazimine (used as a positive control), or MMV665917. As described previously, fecal parasite shedding was quantified at various times postinfection by isolating oocysts using a sucrose gradient centrifugation method ([39]), followed by staining for immunofluorescence microscopy using a fluorescein isothiocyanate-conjugated mouse anti-Cryptosporidium antibody (0.25 μg per sample) and analysis with a Guava easyCyte flow cytometer and CytoSoft data acquisition and analysis software (version 5.3; Guava Technologies, Inc.). Oocyst counts per milliliter of sample were exported to Excel (Microsoft Corp.) and were normalized to counts per milligram of feces. Final data analysis and graphing were carried out using GraphPad Prism software (version 6.01).

The test system of assay [2] is C. parvum Iowa isolate. The assay can be described thus: NOD SCID gamma (NSG) mouse model of chronic cryptosporidiosis, fecal qPCR. The assay is classed as in vivo, NOD SCID gamma mice. The following applies: for short-term efficacy on oocyst shedding in NSG mice: Fig. 2B, dose not given. How it is done: All NOD SCID gamma mouse studies were performed in compliance with animal care guidelines and were approved by the University of Vermont Institutional Animal Care and Use Committee. NOD SCID gamma mice with normal flora (NOD.Cg-Prkdc^scid Il2rg^tm1Wjl/SzJ) ([38]) were purchased from The Jackson Laboratory (Bar Harbor, ME, USA) and were housed for at least a week for acclimatization. At the age of 4 to 5 weeks, mice were infected with 10^5 C. parvum Iowa isolate oocysts. Fecal oocyst shedding is detected 6 days after infection using a quantitative PCR (qPCR assay), so treatment was started on day 7 after infection. Mice (4 per experimental group) were treated either orally (p.o.) with MMV665917 at 30 or 60 mg/kg BID, intraperitoneally (i.p.) with MMV665917 at 60 mg/kg BID, or p.o. with 1,000 mg/kg paromomycin BID. MMV665917 was suspended in DMSO, sonicated three times, for 30 s each time, to obtain a fine suspension, aliquoted, and stored at −80°C for <10 days. On the day of treatment, aliquots of MMV665917 diluted in DMSO were thawed, mixed well using a vortexer, diluted with 1% HPMC, sonicated as before (three times for 30 s each time), mixed well, and given to mice either p.o. or by i.p. injection. A final concentration of 5% DMSO was used in 100 μl of 1% HPMC per dose. For the additional Malaria Box compounds and compound variants tested, the doses were prepared in the same way, and the specific dosages tested are given in Table S3 in the supplemental material. Mice were treated for either 4 or 7 days, allowed to recover for a week, and then sacrificed. Oocyst shedding in feces was monitored throughout by qPCR, including time points while on treatment and while monitoring for relapsed infection following completion of treatment in Fig. 2A.

The test system of another assay is C. parvum. In words: Parasite persistence (time-kill) assay in HCT-8 cells. The assay is classed as cell-based, Cryptosporidium parvum. The following applies: for parasite persistence: highest nontoxic concentrations, added 24 h after infection. How it is done: Excysted C. parvum oocysts were added to >90% confluent HCT-8 cells in 384-well plates. […] At ∼24 h (i.e., the time of compound addition) and at various time intervals thereafter, parasites were washed, fixed, permeabilized, stained, and imaged as for the C. parvum growth assay. For the extended-compound-exposure experiments, the medium and compound were replaced every 3 days. A separate 384-well plate was used for each time interval. Parasite numbers were normalized to host cell nucleus numbers and are expressed as the percentage of parasites per host cell nucleus. In order to fit parasite decay curves, the effect of drugs was isolated from expected changes in parasite numbers over time by expressing the number of parasites as the percentage of the number of parasites with the control, dimethyl sulfoxide (DMSO), for each time point. Exponential decay curves were fit using GraphPad Prism software, version 6.01, and curve validity was assessed using the replicates test.

Structures are written as SMILES.

For the molecule `NC[C@@H]1O[C@H](O[C@H]2[C@@H](O)[C@H](O[C@@H]3[C@@H](O)[C@H](N)C[C@H](N)[C@H]3O[C@H]3O[C@H](CO)[C@@H](O)[C@H](O)[C@H]3N)O[C@@H]2CO)[C@H](N)[C@@H](O)[C@@H]1O` [paromomycin], the “efficacy in IFN-γ KO mouse model of acute infection” value in the assay with C. parvum Iowa isolate [1] is reported as “good efficacy”. The “short-term efficacy on oocyst shedding in NSG mice” value in the assay with C. parvum Iowa isolate [2] is recorded as “ineffective”. The “relapse after cessation of treatment” value with C. parvum Iowa isolate [2] (paromomycin 1,000 mg/kg p.o. BID, 7 days) is on record as “relapsed promptly”. Also, in the assay on C. parvum, the “parasiticidal or parasitistatic for C. parvum” value was “parasitistatic” and the parasite persistence entry is on record as “parasites persist”. Also, the “percentage of host cells infected, extended treatment” value in the assay on C. parvum (day 13 of treatment, 12 × EC90, medium and drug replaced every 3 days) is recorded as “closely mirrored the pattern for the vehicle control”.
In the case of `CC(C)/N=c1\cc2n(-c3ccc(Cl)cc3)c3ccccc3nc-2cc1Nc1ccc(Cl)cc1` [clofazimine], the “efficacy in IFN-γ KO mouse model of acute infection” value in the assay with C. parvum Iowa isolate [1] is recorded as “confirmed”. Also, the “short-term efficacy on oocyst shedding in NSG mice” value in the assay on C. parvum Iowa isolate [2] was “completely lacked efficacy”. Further, in the assay on C. parvum, the “parasiticidal or parasitistatic for C. parvum” value was “parasitistatic” and the parasite persistence result was “parasites persist”.
